In ChEMBL document CHEMBL5154675, “Design, Synthesis, and Biological Evaluation of 1-(Indolizin-3-yl)ethan-1-ones as CBP Bromodomain Inhibitors for the Treatment of Prostate Cancer” (J Med Chem, 2022):

Columns and labels:
CREB-binding protein [1] = target: T1, CREB-binding protein (Homo sapiens, UniProt Q92793); test: Inhibition of His6-tagged human CBP bromodomain (1081 to 1197 residues) expressed in Escherichia coli BL21 (DE3) incubated for 30 mins by HTRF assay
Target sequence in this assay (Q92793 whole entry, the tested form may be a part): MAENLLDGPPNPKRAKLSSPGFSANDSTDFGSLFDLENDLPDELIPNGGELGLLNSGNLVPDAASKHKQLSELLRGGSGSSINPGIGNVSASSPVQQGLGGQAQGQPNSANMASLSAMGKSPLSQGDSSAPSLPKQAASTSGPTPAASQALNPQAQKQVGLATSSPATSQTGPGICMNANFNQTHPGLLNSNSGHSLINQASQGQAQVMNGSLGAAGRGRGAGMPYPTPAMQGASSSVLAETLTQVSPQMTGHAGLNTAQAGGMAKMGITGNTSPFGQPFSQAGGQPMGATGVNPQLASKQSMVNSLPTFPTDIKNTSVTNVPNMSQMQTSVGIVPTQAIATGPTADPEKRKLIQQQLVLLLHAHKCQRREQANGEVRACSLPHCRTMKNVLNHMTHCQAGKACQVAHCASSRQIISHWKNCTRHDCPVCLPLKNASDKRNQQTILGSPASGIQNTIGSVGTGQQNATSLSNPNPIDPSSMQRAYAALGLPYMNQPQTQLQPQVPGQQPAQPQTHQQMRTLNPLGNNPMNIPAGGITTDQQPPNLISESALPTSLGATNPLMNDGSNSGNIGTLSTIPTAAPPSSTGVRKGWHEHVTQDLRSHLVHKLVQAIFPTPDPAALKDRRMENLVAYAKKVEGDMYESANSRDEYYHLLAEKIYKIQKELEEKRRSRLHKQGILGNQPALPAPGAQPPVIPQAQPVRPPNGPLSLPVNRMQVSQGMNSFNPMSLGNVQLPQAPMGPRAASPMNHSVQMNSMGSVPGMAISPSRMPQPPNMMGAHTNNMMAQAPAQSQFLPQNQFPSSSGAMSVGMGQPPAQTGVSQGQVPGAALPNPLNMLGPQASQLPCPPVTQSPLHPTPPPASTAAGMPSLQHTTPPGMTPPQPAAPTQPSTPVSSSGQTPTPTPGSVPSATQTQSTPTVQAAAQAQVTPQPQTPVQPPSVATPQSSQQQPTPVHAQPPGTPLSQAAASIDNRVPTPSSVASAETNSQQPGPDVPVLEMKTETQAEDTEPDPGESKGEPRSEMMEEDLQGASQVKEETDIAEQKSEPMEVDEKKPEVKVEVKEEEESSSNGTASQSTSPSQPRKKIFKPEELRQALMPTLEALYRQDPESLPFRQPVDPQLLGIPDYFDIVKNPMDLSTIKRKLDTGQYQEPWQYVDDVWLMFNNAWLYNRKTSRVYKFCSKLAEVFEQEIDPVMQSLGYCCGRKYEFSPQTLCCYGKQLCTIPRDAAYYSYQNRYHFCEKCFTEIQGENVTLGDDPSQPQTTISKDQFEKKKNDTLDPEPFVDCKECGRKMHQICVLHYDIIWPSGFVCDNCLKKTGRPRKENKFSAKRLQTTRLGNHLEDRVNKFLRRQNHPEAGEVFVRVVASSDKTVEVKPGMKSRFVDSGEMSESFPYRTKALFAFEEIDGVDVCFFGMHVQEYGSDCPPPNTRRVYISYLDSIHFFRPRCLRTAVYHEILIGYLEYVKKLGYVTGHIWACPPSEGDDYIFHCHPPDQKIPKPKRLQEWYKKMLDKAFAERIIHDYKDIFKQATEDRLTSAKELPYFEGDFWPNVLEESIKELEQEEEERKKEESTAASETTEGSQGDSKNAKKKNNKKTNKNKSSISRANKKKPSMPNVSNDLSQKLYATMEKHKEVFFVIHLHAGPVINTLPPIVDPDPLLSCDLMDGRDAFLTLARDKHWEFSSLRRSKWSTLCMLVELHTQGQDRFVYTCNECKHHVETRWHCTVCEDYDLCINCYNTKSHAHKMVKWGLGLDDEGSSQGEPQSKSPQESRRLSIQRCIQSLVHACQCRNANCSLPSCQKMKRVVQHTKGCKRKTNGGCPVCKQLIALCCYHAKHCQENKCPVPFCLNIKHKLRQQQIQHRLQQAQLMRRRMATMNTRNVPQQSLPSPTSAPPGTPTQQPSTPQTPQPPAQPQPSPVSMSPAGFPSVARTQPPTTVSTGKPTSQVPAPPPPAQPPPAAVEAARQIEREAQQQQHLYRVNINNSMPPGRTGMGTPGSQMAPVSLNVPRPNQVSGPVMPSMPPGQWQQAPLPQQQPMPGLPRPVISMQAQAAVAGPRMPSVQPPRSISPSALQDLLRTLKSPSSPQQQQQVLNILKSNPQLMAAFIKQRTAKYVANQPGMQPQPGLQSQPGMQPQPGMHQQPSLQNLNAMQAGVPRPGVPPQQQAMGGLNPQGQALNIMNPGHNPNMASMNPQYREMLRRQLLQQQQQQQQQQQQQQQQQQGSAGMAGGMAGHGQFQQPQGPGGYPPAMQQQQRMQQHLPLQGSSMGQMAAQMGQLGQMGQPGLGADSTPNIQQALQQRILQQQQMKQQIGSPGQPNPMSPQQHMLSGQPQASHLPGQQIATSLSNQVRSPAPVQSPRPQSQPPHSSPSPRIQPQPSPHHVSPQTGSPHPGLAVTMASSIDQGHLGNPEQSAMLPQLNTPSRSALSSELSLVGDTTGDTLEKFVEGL

CREB-binding protein [2] = target: T1, CREB-binding protein; details: dose 200.0 µM, time 30.0 min
Target sequence in this assay (Q92793 2-2442 limits assumed): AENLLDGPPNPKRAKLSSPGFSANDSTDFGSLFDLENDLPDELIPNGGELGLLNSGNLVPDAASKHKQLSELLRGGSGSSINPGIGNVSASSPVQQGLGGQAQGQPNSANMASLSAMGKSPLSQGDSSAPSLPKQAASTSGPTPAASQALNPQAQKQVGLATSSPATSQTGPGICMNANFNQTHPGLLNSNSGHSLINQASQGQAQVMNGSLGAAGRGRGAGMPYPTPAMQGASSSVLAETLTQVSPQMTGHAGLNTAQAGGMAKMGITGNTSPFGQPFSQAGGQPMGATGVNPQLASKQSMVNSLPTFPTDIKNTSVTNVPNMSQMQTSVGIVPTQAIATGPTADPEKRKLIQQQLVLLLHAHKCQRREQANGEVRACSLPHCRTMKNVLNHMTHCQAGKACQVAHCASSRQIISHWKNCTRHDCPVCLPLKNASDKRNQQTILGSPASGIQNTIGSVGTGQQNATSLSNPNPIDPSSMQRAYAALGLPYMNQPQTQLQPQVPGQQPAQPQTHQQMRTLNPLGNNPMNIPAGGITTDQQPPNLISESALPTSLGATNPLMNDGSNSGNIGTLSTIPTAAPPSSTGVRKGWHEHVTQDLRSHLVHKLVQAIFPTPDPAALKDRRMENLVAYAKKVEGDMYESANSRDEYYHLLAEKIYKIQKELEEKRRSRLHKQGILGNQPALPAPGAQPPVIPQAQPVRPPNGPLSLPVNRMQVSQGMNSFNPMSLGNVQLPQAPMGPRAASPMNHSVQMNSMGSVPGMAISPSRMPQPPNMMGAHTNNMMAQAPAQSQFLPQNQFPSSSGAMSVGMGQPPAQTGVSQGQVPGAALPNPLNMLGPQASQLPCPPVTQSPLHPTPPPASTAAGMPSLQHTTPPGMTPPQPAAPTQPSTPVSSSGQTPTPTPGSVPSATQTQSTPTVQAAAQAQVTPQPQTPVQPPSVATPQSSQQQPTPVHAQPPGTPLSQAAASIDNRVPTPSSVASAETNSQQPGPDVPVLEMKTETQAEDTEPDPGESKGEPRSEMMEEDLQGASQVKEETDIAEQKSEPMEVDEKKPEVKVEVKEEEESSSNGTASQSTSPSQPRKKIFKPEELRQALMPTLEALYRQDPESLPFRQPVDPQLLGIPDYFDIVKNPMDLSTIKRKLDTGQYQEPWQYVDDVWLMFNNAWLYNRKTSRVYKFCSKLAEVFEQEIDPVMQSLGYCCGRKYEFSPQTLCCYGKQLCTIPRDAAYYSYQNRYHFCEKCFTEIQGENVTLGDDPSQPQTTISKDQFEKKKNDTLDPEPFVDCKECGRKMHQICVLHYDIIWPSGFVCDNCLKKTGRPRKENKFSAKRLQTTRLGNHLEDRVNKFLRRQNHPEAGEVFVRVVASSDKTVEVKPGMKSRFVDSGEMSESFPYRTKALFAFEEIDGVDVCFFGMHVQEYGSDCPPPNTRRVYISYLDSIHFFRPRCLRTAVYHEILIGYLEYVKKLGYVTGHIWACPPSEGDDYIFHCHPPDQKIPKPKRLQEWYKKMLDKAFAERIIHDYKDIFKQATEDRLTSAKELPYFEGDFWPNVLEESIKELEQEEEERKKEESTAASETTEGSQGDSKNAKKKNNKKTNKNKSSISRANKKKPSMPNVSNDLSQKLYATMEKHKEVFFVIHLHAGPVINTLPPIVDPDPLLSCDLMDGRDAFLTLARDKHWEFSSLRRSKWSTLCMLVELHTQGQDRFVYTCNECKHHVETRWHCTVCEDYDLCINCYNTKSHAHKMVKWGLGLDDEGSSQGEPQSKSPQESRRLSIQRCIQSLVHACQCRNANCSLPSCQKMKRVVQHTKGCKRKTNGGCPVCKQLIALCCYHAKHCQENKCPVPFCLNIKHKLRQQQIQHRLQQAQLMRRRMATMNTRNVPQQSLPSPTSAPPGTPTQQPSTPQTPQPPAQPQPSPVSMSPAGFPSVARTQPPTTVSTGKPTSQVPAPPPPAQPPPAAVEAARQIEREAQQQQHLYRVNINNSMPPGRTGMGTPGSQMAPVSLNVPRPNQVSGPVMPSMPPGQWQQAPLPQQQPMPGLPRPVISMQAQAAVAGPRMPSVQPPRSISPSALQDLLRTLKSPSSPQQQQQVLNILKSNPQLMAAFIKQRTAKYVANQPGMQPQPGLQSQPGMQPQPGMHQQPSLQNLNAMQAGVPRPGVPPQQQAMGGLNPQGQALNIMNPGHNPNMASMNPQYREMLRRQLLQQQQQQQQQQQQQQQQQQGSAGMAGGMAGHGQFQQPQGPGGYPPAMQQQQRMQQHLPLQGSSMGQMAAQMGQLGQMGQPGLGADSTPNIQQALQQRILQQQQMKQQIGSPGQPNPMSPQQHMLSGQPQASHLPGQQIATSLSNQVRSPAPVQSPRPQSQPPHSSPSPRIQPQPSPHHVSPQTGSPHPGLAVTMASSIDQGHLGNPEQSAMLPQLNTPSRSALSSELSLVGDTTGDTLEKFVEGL

LNCaP C4-2B = test: Antiproliferative activity against human LNCaP C4-2B cells assessed as inhibition of cell growth by Celltiter-Glo assay; type: functional, cell-based
[3] = Half life in rat liver microsomes at 1 uM incubated for 45 mins in presence of NADPH by LC-MS/MS analysis; type: ADME, Microsome
[4] = Intrinsic clearance in rat liver microsomes at 1 uM incubated for 45 mins in presence of NADPH by LC-MS/MS analysis; type: ADME, Microsome; details: read-out: CLH
[5] = Hepatic clearance in rat liver microsomes at 1 uM incubated for 45 mins in presence of NADPH by LC-MS/MS analysis; type: ADME, Microsome
[6] = Apparent permeability across basolateral to apical side in human Caco-2 cells assessed as drug recovery at 10 uM measured after 2 hrs by LC-MS/MS analysis; type: ADME, cell-based; details: read-out: Drug recovery
[7] = Apparent permeability across apical to basolateral side in human Caco-2 cells assessed as drug recovery at 10 uM measured after 2 hrs by LC-MS/MS analysis; type: ADME, cell-based; details: read-out: Drug recovery
CREB-binding protein [8] = target: T1, CREB-binding protein; test: Binding affinity to His6-tagged human CBP bromodomain (1081 to 1197 residues) expressed in Escherichia coli BL21 (DE3) assessed as dissociation constant by ITC analysis
Target sequence in this assay (Q92793 whole entry, the tested form may be a part): as the sequence (Q92793 whole entry, the tested form may be a part) above

[9] = Metabolic stability in rat liver microsomes assessed as parent compound remaining at 1 uM incubated for 45 mins in presence of NADPH by LC-MS/MS analysis; type: ADME, Microsome; details: read-out: Stability

ΔTm (CREB-binding protein [2]) | SMILES | IC50 (CREB-binding protein [1]) | IC50 (LNCaP C4-2B) | further results
12 °C | CC(=O)c1cc(C(=O)Nc2cc(C(C)O)cc(-c3cnn(C4CC4)c3)c2F)c2cc(O)ccn12 (stereo unspecified) | 0.079 µM | 42 µM | –
– | O=C(c1ccc(F)cc1)C1CCN(CCn2c(=O)[nH]c3ccccc3c2=O)CC1 [KETANSERIN] | – | – | half-life at 1 µM [3]: 15.6 min; CLint scaled at 1 µM [4]: 159 mL/min/kg; CLhep predicted at 1 µM [5]: 41 mL/min/kg
3.9 °C | CC(=O)c1cc(C(=O)Nc2cc(CO)cc(-c3cnn(C)c3)c2F)c2cc(OCc3ccccc3)ccn12 | – | 49.7 µM | –
– | CC(C)NCC(O)COc1ccc(CC(N)=O)cc1 (stereo unspecified) [ATENOLOL] | – | – | recovery at 2 h, 10 µM [6]: 94.2%; recovery at 2 h, 10 µM [7]: 94.8%
2.4 °C | CNC(=O)c1cc(C(=O)Nc2cc(CO)cc(-c3cnn(C)c3)c2F)c2cc(O)ccn12 | – | – | –
0.9 °C | Cn1cc(-c2cc(CO)cc(NC(=O)c3cc(C(=O)C(C)(C)C)n4ccc(O)cc34)c2F)cn1 | – | 33.9 µM | –
5.4 °C | COc1ccn2c(C(C)=O)cc(C(=O)Nc3cc(C=O)cc(-c4cnn(C)c4)c3F)c2c1 | 0.013 µM | 17.4 µM | –
11.4 °C | COc1ccn2c(C(C)=O)cc(C(=O)Nc3cc(C(=O)O)cc(-c4cnn(C)c4)c3F)c2c1 | 0.0098 µM | – | half-life at 1 µM [3]: > 120 min; Kd (CREB-binding protein [8]): 0.03 µM; remaining at 0.75 h, 1 µM [9]: 100%
1.8 °C | CC(C)C(=O)c1cc(C(=O)Nc2cc(CO)cc(-c3cnn(C)c3)c2F)c2cc(O)ccn12 | – | 37 µM | –

SMILES | ΔTm (CREB-binding protein [2]) | IC50 (CREB-binding protein [1]) | IC50 (LNCaP C4-2B) | further results
COc1ccn2c(C(C)=O)cc(C(=O)Nc3cc(F)cc(-c4cnn(C)c4)c3F)c2c1 | 6.6 °C | 0.0696 µM | > 50 µM | –
CC(=O)c1cc(C(=O)Nc2cc(C(C)O)cc(-c3cnn(C4CC4)c3)c2F)c2cc(OC(=O)N(C)C)ccn12 (stereo unspecified) | 10 °C | 0.0262 µM | 9.09 µM | –
CNc1ccn2c(C(C)=O)cc(C(=O)Nc3cc(CO)cc(-c4cnn(C)c4)c3F)c2c1 | 9.9 °C | 0.0021 µM | > 50 µM | –
CC(=O)c1cc(C(=O)Nc2cc(CO)cc(-c3cnn(C4CC4)c3)c2F)c2cc(N)ccn12 | 10.5 °C | 0.00296 µM | 8.66 µM | –
CCC(=O)c1cc(C(=O)Nc2cc(CO)cc(-c3cnn(C)c3)c2F)c2cc(O)ccn12 | 11.1 °C | 0.0785 µM | 34.9 µM | –
COc1ccn2c(C(C)=O)cc(C(=O)Nc3cc(Cl)cc(-c4cnn(C)c4)c3F)c2c1 | 6 °C | 0.0552 µM | 9.28 µM | –
